Measured values reported in patent publication US20260152487A1 (Sitryx Therapeutics Limited, priority 2021, published 2026).

How the values were obtained:
[1] = molecular target: T1, recombinant human PKM2 (Homo sapiens, UniProt P14618); assay: Human PKM2 activation assay (Kinase-Glo Plus luminescent detection of generated ATP); type: biochemical; conditions: for Emax: read-out: hPKM2 Emax; for EC50: recombinant human PKM2 activation, 4-parameter logistic fit, read-out: hPKM2 EC50
T1 construct: His (N); purchased R&D Systems
How it was run: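 Luminescent ATP detection (Kinase-Glo Plus, 15 min, 26 °C) followed a 60 min, 26 °C shaken reaction of compound with […] His-tagged human PKM2, PEP and ADP in imidazole/KCl/MgCl2 buffer with Tween20 and BSA, pH 7.2.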

[2] = tested on: A549 cells; assay: A549 cell proliferation in low-serine medium (CellTiter-Glo 2.0 viable cell number); type: cell-based; conditions: Homo sapiens, 72 h, 3 days, Assay Medium with 20 μM L-serine
Experimental: The effect of compounds of Formula (Ia) on A549 cell proliferation in low-serine medium was assessed using a luminescence assay of viable cell number (CellTiter-Glo® 2.0, Promega) duplexed with a fluorescent cytotoxicity assessment (CelITox™ Green, Promega). Cell culture reagents were from ThermoFisher unless specified otherwise. Assay reagents were from Sigma-Aldrich unless specified otherwise. Test Compounds were prepared as 10 mM DMSO stocks and dilution series prepared in DMSO for direct dilution into culture medium.
Cells were passaged every 3-4 days at 80-90% confluence. The cell monolayer was washed twice with room-temperature Ca^2+/Mg-free PBS and 4 ml room-temperature trypsin-EDTA added to the flask. After 5 minutes' incubation (37° C., 5% CO2) to detach cells, trypsin was quenched with 13 ml warmed complete growth medium and the cells harvested and diluted to 2.4×10^4 cells/ml for dispensing into 384-well clear-bottom black-walled plates (600 cells/well).
Following overnight incubation, growth medium was aspirated from each well and the cells washed twice with Assay Medium comprising Basal Medium Eagle supplemented with 3% heat-inactivated dialysed FBS plus 2 mM L-glutamine plus 20 μM L-serine (Sigma-Aldrich). After aspiration of the final wash medium, Assay Medium containing Test Compound was added to each well. DMSO vehicle controls were included on each plate.
Cells were incubated for 3 days in a humidified incubator (37° C., 5% CO2) at which point CelITox™ Green and CellTiter-Glo® reagents were prepared according to the manufacturer's instructions. Triton-X was added to HIGH wells for cytotoxicity determination and the plate incubated for 30 minutes (20° C., ambient humidity and pCO2). CelITox™ Green reagent was added to each well and the plate covered, placed on an orbital shaker @450 rpm for 2 minutes, and incubated in the dark for 15 minutes (20° C., ambient humidity and pCO2). Endpoint fluorescence was measured using a plate reader (PHERAstar® FSX, BMG Labtech).
Following cytotoxicity determination, CellTiter-Glo® reagent was added to each well and the plate placed on an orbital shaker @450 rpm for 2 minutes to lyse cells. Plates were incubated in the dark for 15-30 minutes (20° C., ambient humidity and pCO2) prior to endpoint luminescence measurement (PHERAstar® FSX, BMG Labtech).
Proliferation was calculated by normalizing luminescence signals to LOW controls obtained from a parallel plate processed at the time of Test Compound challenge and HIGH (DMSO vehicle) wells from the compound plate. IC50 values were determined from a 4-parameter logistic fit of compound concentration-response curves.

[3] = molecular target: T2, recombinant human PKLR (Homo sapiens, UniProt P30613); assay: Human PKLR activation assay (Kinase-Glo Plus luminescent detection of generated ATP); type: biochemical; conditions: for EC50: activation of recombinant human PKLR, 4-parameter logistic fit, read-out: hPKLR EC50; for Emax: read-out: hPKLR Emax (%)
T2 construct: His (N); purchased R&D Systems
Experimental: Compound activation of recombinant human PKLR pyruvate kinase activity was determined by biochemical assay. N-terminal His-tagged enzyme was sourced from R&D Systems and its substrates phosphoenolpyruvate (PEP) and ADP from Sigma-Aldrich and 2Bscientific Ltd, respectively. The Kinase-Glo® Plus luminescence assay was from Promega. All other reagents were from Sigma-Aldrich. Test Compounds were prepared as 10 mM DMSO stocks and dilution series prepared in DMSO for direct dilution into Assay Buffer comprising 50 mM imidazole, 50 mM KCl, 7 mM MgCl2, 0.01% Tween20, 0.05% BSA (pH 7.2).
Human PKLR was diluted into Assay Buffer to a final concentration of 5 pM. Enzyme-Assay Buffer mix was dispensed into 384-well shallow-well white-walled plates and Test Compounds added by acoustic dispense (Echo®, Labcyte Inc).
After 60 minutes' incubation on an orbital shaker (300 rpm, 26° C.), enzyme activity was quantified by the luminescent detection of generated ATP. Kinase-Glo® Plus reagent was added to each well and the plates incubated for a further 15 minutes on an orbital shaker in the dark (300 rpm, 26° C.) before luminescence measurement on a plate reader (PHERAstar® FSX, BMG Labtech).
Percentage activation was calculated by normalising […] signals to plate LOW (DMSO vehicle) and HIGH (5 μM TEPP-46) controls. EC50 and Emax values were determined from 4-parameter logistic fits of compound concentration-response curves.

[4] = percentage activation normalised to DMSO vehicle (LOW) and 5 μM TEPP-46 (HIGH)
[5] = percentage activation normalised to DMSO vehicle (LOW) and 5 μM TEPP-46 (HIGH) controls

T1 sequence (P14618 2-531 limits assumed): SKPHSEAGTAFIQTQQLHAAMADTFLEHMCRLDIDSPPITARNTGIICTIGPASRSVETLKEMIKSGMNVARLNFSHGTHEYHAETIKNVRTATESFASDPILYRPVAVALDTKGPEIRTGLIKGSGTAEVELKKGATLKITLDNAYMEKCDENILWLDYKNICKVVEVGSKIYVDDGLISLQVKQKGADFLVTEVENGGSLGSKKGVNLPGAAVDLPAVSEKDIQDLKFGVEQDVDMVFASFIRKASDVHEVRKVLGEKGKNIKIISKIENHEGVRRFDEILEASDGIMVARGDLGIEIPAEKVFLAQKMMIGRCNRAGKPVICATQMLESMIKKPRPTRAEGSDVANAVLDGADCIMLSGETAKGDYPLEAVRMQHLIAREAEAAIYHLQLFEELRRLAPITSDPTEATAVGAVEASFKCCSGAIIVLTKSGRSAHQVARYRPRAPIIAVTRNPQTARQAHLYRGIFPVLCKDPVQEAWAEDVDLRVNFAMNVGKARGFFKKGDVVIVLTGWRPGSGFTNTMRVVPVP
T2 sequence (P30613 whole entry): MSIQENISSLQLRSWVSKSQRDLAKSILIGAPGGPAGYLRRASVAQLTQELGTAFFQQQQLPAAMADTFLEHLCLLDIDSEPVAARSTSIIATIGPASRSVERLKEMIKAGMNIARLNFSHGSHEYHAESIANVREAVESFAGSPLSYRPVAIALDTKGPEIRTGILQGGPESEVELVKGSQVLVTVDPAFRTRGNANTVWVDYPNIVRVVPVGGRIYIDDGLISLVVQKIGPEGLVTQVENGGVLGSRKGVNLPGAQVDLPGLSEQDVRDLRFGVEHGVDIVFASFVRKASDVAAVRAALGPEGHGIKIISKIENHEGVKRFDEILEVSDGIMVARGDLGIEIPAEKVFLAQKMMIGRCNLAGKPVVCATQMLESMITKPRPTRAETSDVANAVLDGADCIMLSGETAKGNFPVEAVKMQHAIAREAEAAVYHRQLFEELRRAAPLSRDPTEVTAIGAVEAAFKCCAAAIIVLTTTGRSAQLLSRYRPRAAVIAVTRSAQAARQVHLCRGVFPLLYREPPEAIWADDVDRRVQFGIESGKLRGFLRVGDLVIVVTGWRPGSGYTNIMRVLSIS

SMILES	Emax [1, 4]	EC50 [1]	IC50 [2]	EC50 [3]	Emax [3, 5]	hPKLR Emax (%) [3, 5]	hPKM2 Emax [1, 4]
COc1ccc(S(=O)(=O)c2ccc3c(=O)n(Cc4ccn(CCO)n4)ncc3c2)cc1 [Example 24, 2-((1-(2-hydroxyethyl)-1H-pyrazol-3-yl)methyl)-6-((4-methoxyphenyl)sulfonyl)phthalazin-1(2H)-one]	123%	107 nM	3 nM	–	–	–	–
COc1ccc(S(=O)(=O)c2ccc3c(=O)n(Cc4cccc5c4CCN5)ncc3c2)cc1 [Example 2, 2-(indolin-4-ylmethyl)-6-((4-methoxyphenyl)sulfonyl)phthalazin-1(2H)-one]	97%	66.4 nM	0.8 nM	–	–	–	–
NC(=O)c1c[nH]nc1Cn1ncc2cc(S(=O)(=O)c3ccccc3)ccc2c1=O [Example 15, 3-((1-oxo-6-(phenylsulfonyl)phthalazin-2(1H)-yl)methyl)-1H-pyrazole-4-carboxamide]	124%	243 nM	15.8 nM	–	–	–	–
O=c1c2ccc(S(=O)(=O)c3ccccc3)cc2cnn1Cc1cncc(O)c1 [Example 7, 2-((5-hydroxypyridin-3-yl)methyl)-6-(phenylsulfonyl)phthalazin-1(2H)-one]	99.8%	177 nM	6.7 nM	–	–	–	–
O=c1c2ccc(S(=O)(=O)c3ccccc3)cc2cnn1C(CO)c1ccccc1 (stereo not shown) [Example 19, 2-(2-hydroxy-1-phenylethyl)-6-(phenylsulfonyl)phthalazin-1(2H)-one]	65.3%	133 nM	4.2 nM	–	–	–	–
COc1ccc(S(=O)(=O)c2ccc3c(=O)n(Cc4cccc(OC(F)F)c4)ncc3c2)cc1 [Example 40, 2-(3-(difluoromethoxy)benzyl)-6-((4-methoxyphenyl)sulfonyl)phthalazin-1(2H)-one]	90%	42.7 nM	3.7 nM	–	–	–	–
COc1ccc(S(=O)(=O)c2ccc3c(=O)n(Cc4ccc(OC)nc4)ncc3c2)cc1 [Example 51, 6-((4-methoxyphenyl)sulfonyl)-2-((6-methoxypyridin-3-yl)methyl)phthalazin-1(2H)-one]	104%	24.1 nM	3.5 nM	–	–	–	–
COc1ccc(S(=O)(=O)c2ccc3c(=O)n(Cc4n[nH]c5ccccc45)ncc3c2)cc1 [Example 48, 2-((1H-indazol-3-yl)methyl)-6-((4-methoxyphenyl)sulfonyl)phthalazin-1(2H)-one]	85.8%	55.2 nM	1.6 nM	–	–	–	–
O=c1c2ccc(S(=O)(=O)c3ccccc3)cc2cnn1Cc1ccccc1CCO [Example 63, 2-(2-(2-hydroxyethyl)benzyl)-6-(phenylsulfonyl)phthalazin-1(2H)-one]	101%	167 nM	4.3 nM	–	–	–	–
Cn1ncc2cc(Cn3ncc4cc(S(=O)(=O)c5ccccc5)ccc4c3=O)ccc21 [Example 36, 2-((1-methyl-1H-indazol-5-yl)methyl)-6-(phenylsulfonyl)phthalazin-1(2H)-]	70%	207 nM	20.6 nM	–	–	–	–
COc1ccc(S(=O)(=O)c2ccc3c(=O)n(Cc4ccnc(O)c4)ncc3c2)cc1 [Example 55, 2-((2-hydroxypyridin-4-yl)methyl)-6-((4-methoxyphenyl)sulfonyl)phthalazin-1(2H)-one]	–	–	21.7 nM	–	–	–	–

The next lines start with the values.

Emax [1, 4]	EC50 [1]	IC50 [2]	EC50 [3]	Emax [3, 5]	hPKLR Emax (%) [3, 5]	hPKM2 Emax [1, 4]	SMILES
91.2%	218 nM	38.7 nM	–	–	–	–	COc1ccc(C(C)n2ncc3cc(S(=O)(=O)c4ccccc4)ccc3c2=O)cn1 (stereo not shown) [Example 74, 2-(1-(6-methoxypyridin-3-yl)ethyl)-6-(phenylsulfonyl)phthalazin-1(2H)-one]
98.8%	41.3 nM	0.7 nM	–	–	–	–	COc1ccc(S(=O)(=O)c2ccc3c(=O)n(Cc4c(F)ccnc4O)ncc3c2)cc1 [Example 103, 2-((4-fluoro-2-hydroxypyridin-3-yl)methyl)-6-(4-methoxyphenylsulfonyl) phthalazin-1(2H)-one]
132%	178 nM	2 nM	–	–	–	–	O=c1c2ccc(S(=O)(=O)c3ccccc3)cc2cnn1Cc1cc2ccccn2n1 [Example 108, 6-(phenylsulfonyl)-2-(pyrazolo[1,5-a]pyridin-2-ylmethyl)phthalazin-1(2H)-one]
98.6%	360 nM	17.4 nM	–	–	–	–	O=c1c2ccc(S(=O)(=O)c3ccccc3)cc2cnn1Cc1cccnc1 [Example 65, 6-(phenylsulfonyl)-2-(pyridin-3-ylmethyl)phthalazin-1(2H)-one]
81.3%	54.5 nM	–	26.4 nM	119%	–	–	COc1ccc(Cn2ncc3cc(S(=O)(=O)c4cnn(CCO)c4)ccc3c2=O)cn1 [Example 271, 6-((1-(2-hydroxyethyl)-1H-pyrazol-4-yl)sulfonyl)-2-((6-methoxypyridin-3-yl)methyl)phthalazin-1(2H)-one]
105%	206 nM	–	27.4 nM	123%	–	–	Cn1ccc(Cn2ncc3cc(S(=O)(=O)c4ccccc4)c(NCCO)cc3c2=O)n1 [Example 244, 7-((2-hydroxyethyl)amino)-2-((1-methyl-1H-pyrazol-3-yl)methyl)-6-(phenylsulfonyl)phthalazin-1(2H)-one]
103%	138 nM	–	108 nM	136%	–	–	Cc1cccc(Cn2ncc3cc(S(=O)(=O)c4cnn(C5COC5)c4)ccc3c2=O)n1 [Example 270, 2-((6-methylpyridin-2-yl)methyl)-6-((1-(oxetan-3-yl)-1H-pyrazol-4-yl)sulfonyl)phthalazin-1(2H)-one]
–	50.5 nM	–	6.44 nM	–	–	–	O=c1c2ccc(S(=O)(=O)c3cn[nH]c3)cc2cnn1Cc1cc2n(n1)CCO2 [Example 323]
–	–	4.4 nM	–	–	–	–	O=C(c1ccc(NS(=O)(=O)c2cccc3cccnc23)cc1)N1CCN(CC2CC2)CC1 [Mitapivat, mitapivat, reference compound]
103%	45.2 nM	–	13 nM	110%	–	–	O=c1c2ccc(S(=O)(=O)c3cn[nH]c3)cc2cnn1Cc1cccc(C2CC2)n1 [Example 287, 6-((1H-pyrazol-4-yl)sulfonyl)-2-((6-cyclopropylpyridin-2-yl)methyl)phthalazin-1(2H)-one]
–	85.6 nM	–	14 nM	–	133%	91.2%	COc1ccc([S@@](=N)(=O)c2ccc3c(=O)n(Cc4ccc(OC)nc4)ncc3c2)cc1 (single isomer, unassigned) [Example 191]
98.7%	50 nM	–	10.3 nM	128%	–	–	O=c1c2ccc(S(=O)(=O)c3ccc4c(c3)OCCO4)cc2cnn1Cc1ccn(CCO)n1 [Example 206, 6-((2,3-dihydrobenzo[b][1,4]dioxin-6-yl)sulfonyl)-2-((1-(2-hydroxyethyl)-1H-pyrazol-3-yl)methyl)phthalazin-1(2H)-one]
